From ChEMBL document CHEMBL1201862, “PubChem BioAssay data set” (2004)
Activity calls are given as the source filed them.

Tests used:
HEK293 [1] = assay: cells; assay type: functional, cell-based; settings: Homo sapiens
[2] = biological target: Nucleotide-binding oligomerization domain-containing protein 2 (Homo sapiens, UniProt Q9HC29); assay: NOD2 signaling inhibitors, cell-based, luminescence, uHTS, HEK293 (AID 1566); assay type: functional
HEK293 [3] = assay: cells; assay type: functional, cell-based; settings: Homo sapiens; remark: listed apart in the source
HEK293 [4] = assay: NOD1 signaling inhibitors, primary screen, cell-based, luminescence, uHTS (AID 1578); assay type: functional; settings: Homo sapiens
HEK293 [5] = assay: NOD2 signaling inhibitors in MDP-stimulated cells, cell-based, uHTS, luminescence (AID 2001); assay type: functional; settings: Homo sapiens
[6] = biological target: T1, Replicative DNA helicase DnaB (Mycobacterium tuberculosis, UniProt P9WMR3); assay: DnaB intein splicing inhibitors, dose response, biochemical, cell-free fluorescence (AID 449749); assay type: functional
T1 sequence (P9WMR3 whole entry): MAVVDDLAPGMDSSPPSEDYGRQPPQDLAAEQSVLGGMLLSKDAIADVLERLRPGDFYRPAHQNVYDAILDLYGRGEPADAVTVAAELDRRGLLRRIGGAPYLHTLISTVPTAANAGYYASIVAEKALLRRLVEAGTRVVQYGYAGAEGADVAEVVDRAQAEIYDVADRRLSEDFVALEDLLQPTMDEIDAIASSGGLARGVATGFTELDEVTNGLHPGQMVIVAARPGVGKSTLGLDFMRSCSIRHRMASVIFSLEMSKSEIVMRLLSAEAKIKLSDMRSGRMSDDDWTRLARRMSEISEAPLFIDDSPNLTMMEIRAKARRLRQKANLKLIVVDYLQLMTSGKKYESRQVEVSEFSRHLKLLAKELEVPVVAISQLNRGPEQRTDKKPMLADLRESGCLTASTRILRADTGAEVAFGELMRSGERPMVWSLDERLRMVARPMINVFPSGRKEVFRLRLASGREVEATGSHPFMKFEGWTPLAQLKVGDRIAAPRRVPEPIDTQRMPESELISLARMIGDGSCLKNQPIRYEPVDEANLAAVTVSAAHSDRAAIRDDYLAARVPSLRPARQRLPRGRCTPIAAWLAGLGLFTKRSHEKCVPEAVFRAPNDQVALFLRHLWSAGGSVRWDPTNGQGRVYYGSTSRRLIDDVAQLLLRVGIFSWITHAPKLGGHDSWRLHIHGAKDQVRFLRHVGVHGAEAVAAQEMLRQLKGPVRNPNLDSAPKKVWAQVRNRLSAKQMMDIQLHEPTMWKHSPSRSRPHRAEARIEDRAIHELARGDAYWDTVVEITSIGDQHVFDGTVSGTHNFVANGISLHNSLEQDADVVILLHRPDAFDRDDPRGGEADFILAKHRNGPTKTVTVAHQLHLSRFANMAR

Protein RecA = biological target: T2, Protein RecA (Mycobacterium tuberculosis, UniProt P9WHJ3); assay: Fluorescence Cell-Free Homogeneous Dose Retest to Identify Inhibitors of RecA-Intein Splicing Activity. [Related pubchem assays (depositor defined):AID2097, AID2223, AID489010, AID492950]; assay type: functional
T2 sequence (P9WHJ3 whole entry): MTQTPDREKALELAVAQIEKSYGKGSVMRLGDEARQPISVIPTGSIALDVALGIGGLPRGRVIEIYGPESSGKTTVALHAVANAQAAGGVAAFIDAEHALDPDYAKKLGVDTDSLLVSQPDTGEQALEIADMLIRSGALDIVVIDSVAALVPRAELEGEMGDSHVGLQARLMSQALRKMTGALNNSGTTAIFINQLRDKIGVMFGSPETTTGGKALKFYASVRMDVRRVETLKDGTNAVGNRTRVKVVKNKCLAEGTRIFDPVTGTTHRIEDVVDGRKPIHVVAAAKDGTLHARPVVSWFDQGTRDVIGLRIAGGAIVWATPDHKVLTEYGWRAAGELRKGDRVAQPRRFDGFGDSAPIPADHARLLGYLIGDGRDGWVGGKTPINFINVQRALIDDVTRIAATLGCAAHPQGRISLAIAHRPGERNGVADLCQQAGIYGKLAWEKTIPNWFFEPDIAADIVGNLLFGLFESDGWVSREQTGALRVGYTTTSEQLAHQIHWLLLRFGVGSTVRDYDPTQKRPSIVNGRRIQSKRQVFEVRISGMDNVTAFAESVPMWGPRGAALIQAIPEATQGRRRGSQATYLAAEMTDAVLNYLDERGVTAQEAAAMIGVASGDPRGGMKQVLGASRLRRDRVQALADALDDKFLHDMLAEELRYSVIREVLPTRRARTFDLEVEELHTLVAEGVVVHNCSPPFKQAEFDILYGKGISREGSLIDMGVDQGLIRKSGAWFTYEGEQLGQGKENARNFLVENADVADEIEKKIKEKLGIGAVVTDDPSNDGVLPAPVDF

Coagulation factor XII = biological target: T3, Coagulation factor XII (Homo sapiens, UniProt P00748); assay: FXIIa inhibitor potency, concentration-response, biochemical (AID 716); assay type: functional
T3 sequence (P00748 whole entry): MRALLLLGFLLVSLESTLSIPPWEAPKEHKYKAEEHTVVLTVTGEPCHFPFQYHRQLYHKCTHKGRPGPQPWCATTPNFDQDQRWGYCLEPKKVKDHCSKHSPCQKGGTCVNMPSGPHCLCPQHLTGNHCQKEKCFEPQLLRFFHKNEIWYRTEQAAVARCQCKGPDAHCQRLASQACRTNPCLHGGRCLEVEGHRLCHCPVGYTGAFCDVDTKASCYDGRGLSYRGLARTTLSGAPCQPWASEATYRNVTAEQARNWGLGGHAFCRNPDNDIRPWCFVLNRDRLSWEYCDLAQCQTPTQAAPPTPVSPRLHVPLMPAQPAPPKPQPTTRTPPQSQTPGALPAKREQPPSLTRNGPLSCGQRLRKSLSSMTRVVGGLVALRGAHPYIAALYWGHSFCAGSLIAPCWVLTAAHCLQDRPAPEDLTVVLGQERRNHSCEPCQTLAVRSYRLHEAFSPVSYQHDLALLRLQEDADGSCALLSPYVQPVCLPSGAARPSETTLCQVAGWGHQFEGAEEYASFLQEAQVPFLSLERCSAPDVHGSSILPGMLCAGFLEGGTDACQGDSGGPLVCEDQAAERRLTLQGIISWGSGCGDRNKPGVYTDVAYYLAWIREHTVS

[7] = biological target: Complement C1s subcomponent (Homo sapiens, UniProt P09871); assay: Complement C1s ELISA. [Related pubchem assays: 538, 787 ]; assay type: functional
Hexokinase = Hexokinase (Trypanosoma brucei, UniProt Q38C41); assay: Confirmation assay for inhibitors of Trypanosoma brucei hexokinase 1-Analogue-first series. [Related pubchem assays (depositor defined):AID1430, AID1632, AID2516, AID2560, AID2579, AID2600, AID449725, AID492951]; assay type: functional
Chain of Hexokinase (Q38C41 whole entry): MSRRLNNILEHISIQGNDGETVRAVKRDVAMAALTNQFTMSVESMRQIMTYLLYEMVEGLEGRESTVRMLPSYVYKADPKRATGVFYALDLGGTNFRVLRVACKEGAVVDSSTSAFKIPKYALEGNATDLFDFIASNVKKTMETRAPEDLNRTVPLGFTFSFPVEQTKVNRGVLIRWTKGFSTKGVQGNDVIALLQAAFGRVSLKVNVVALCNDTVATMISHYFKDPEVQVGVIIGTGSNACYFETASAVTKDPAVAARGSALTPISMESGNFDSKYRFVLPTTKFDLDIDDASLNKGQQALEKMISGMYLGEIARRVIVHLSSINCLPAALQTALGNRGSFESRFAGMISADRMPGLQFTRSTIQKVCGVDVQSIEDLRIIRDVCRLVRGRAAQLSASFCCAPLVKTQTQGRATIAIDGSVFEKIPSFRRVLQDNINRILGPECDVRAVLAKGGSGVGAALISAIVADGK

[8] = biological target: DNA (cytosine-5)-methyltransferase 1 (Homo sapiens, UniProt P26358); assay: DNMT1 methyltransferase inhibitors, confirmation, biochemical, fluorescent molecular beacon (AID 602386); assay type: functional
Chain of DNA (cytosine-5)-methyltransferase 1 (P26358 whole entry): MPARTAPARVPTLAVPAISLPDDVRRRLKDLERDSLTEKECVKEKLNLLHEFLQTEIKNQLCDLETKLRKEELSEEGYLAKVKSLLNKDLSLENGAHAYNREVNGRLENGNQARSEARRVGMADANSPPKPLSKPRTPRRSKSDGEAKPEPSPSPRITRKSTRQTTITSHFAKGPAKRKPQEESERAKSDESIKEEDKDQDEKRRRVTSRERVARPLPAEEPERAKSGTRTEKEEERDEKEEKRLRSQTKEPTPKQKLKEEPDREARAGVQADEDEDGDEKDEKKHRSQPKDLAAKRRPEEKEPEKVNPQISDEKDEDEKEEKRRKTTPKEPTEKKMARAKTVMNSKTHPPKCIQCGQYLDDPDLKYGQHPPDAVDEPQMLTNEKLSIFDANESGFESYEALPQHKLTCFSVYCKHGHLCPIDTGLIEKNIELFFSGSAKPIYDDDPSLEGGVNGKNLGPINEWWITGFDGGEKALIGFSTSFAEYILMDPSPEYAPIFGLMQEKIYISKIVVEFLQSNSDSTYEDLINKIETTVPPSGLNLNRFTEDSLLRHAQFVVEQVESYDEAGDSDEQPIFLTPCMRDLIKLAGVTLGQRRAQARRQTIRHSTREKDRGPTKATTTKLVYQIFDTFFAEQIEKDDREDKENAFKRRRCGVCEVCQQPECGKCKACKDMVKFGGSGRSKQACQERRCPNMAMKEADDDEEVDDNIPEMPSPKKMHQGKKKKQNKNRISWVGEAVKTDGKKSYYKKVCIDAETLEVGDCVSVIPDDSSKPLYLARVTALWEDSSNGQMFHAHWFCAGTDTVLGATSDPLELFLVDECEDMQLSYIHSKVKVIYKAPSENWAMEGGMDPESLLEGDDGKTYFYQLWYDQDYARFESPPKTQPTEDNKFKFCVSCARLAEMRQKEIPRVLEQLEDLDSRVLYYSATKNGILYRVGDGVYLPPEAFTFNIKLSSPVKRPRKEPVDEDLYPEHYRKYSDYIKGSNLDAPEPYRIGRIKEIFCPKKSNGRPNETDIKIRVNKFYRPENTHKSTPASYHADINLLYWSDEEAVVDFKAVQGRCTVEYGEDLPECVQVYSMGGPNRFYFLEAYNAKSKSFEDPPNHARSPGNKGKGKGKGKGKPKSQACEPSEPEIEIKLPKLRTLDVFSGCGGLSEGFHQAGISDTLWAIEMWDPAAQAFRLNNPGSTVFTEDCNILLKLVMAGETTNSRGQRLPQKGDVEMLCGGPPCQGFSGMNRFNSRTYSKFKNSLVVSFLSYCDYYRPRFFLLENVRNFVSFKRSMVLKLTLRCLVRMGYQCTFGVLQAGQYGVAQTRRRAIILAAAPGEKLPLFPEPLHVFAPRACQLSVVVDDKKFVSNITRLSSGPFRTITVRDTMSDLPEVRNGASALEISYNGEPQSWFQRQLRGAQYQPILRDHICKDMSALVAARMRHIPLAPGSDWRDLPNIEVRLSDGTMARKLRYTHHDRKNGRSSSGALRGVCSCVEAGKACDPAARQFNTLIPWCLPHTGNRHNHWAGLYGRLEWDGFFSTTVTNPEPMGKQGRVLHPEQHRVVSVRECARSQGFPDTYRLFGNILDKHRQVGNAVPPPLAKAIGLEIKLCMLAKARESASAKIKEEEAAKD

[9] = biological target: T4, Small ubiquitin-related modifier 2 (Homo sapiens, UniProt P61956); assay: SUMO2–SIM peptide binding inhibitors, dose response, selectivity assay for SUMO1 interaction inhibitor project, biochemical, fluorescence polarization, uHTS hits (AID 624385); assay type: functional; settings: read-out: IC50_Mean
T4 sequence (P61956 whole entry): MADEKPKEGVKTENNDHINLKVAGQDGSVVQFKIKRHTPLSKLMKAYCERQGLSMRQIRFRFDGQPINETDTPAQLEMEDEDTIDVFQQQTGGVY

[10] = biological target: T5, Probable nicotinate-nucleotide adenylyltransferase (Staphylococcus aureus (strain N315), UniProt P65502); assay type: functional, Staphylococcus aureus subsp. aureus N315;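 for IC50 Mean: confirmatory dose-response retesting of NadD inhibitor hits first found in an ultra-high-throughput screen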
T5 sequence (P65502 whole entry): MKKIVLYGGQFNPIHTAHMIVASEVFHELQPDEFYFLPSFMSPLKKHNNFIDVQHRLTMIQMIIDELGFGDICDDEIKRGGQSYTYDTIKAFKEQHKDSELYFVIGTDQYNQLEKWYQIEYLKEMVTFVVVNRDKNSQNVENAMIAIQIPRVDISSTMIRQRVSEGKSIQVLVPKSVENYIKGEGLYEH

Beta-galactosidase = Beta-galactosidase (Escherichia coli, UniProt Q8VNN2); assay: beta-galactosidase enzyme inhibitors and activators, dose response, artefact control for CCR6 antagonist project, biochemical, E. coli enzyme, set 3 (AID 504712); assay type: functional
Chain of Beta-galactosidase (Q8VNN2 whole entry): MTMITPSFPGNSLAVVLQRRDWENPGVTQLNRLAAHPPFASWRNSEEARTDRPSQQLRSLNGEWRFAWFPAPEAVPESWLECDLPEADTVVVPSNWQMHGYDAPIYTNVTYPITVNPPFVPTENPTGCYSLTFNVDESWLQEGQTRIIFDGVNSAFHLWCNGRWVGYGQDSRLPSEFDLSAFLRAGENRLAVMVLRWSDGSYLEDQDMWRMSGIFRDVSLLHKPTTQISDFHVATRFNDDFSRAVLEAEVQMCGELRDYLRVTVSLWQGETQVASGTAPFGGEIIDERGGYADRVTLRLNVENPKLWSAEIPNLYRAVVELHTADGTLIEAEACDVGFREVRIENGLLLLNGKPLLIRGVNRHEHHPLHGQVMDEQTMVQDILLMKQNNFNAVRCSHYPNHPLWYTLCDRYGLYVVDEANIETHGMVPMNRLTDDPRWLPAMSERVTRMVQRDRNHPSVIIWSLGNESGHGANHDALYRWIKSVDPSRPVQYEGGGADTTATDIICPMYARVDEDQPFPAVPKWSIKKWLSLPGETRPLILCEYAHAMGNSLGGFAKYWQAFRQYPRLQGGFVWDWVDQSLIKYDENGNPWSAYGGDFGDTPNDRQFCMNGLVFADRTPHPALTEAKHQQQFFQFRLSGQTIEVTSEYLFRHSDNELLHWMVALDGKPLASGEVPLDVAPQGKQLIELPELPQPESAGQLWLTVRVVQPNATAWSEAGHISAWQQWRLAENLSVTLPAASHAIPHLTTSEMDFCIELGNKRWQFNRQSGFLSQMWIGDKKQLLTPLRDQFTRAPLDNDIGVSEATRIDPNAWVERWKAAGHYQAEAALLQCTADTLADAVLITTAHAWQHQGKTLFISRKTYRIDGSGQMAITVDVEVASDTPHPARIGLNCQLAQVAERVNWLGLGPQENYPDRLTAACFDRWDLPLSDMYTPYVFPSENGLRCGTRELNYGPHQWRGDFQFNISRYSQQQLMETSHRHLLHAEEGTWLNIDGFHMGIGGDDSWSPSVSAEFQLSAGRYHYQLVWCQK

[11] = biological target: T5, Probable nicotinate-nucleotide adenylyltransferase; assay type: functional, Staphylococcus aureus subsp. aureus N315; settings: read-out: IC50_Mean
[12] = biological target: T6, Small ubiquitin-related modifier 1 (Homo sapiens, UniProt P63165); assay: inhibitors of SUMO1 partner interactions, dose response, biochemical, FRET (AID 624383); assay type: functional; settings: read-out: IC50_Mean
T6 sequence (P63165 whole entry): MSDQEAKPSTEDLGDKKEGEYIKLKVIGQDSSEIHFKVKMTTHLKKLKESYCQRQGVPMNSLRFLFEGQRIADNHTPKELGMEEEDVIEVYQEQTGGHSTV

[13] = biological target: T4, Small ubiquitin-related modifier 2; assay: inhibitors of SUMO2 protein-protein interaction, dose response, selectivity assay for SUMO1 interaction inhibitor project, biochemical, FRET, human SUMO2, uHTS hits (AID 624384); assay type: functional; settings: read-out: IC50_Mean
[14] = biological target: T6, Small ubiquitin-related modifier 1; assay: inhibitors of SUMO1 peptide binding, dose response, biochemical, fluorescence polarization, uHTS hits (AID 624382); assay type: functional; settings: read-out: IC50_Mean
INS1 = assay: beta cell apoptosis inhibitors, cytokine rescue, dose response, luminescence, retest (AID 449756); assay type: functional, cell-based; settings: Rattus norvegicus;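 note: cell death triggered by IL-1 beta plus TNF-alpha plus IFN-gamma mixture; protective hits raise ATP signal compared with cytokine alone wells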
[15] = Vero E6 cell cytotoxicity, dose response, cytotoxicity control for non-replicating M. tuberculosis project, secondary assay (AID 492998); assay type: functional, VeroE6; settings: Vero C1008
cells = assay type: functional
[16] = inhibitors of intracellular T. cruzi replication, confirmation, NIH3T3 host cells, beta-gal luminescence (AID 2044); assay type: functional, cell-based;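 note: intracellular parasites grown in NIH/3T3 mouse fibroblasts as host cells; luminescent beta-galactosidase reporter signal from transgenic T. cruzi replicating inside host cells; inhibitors lower the luminescence signal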
[17] = cytotoxicity toward NIH3T3 fibroblasts, dose response, counter-screen, cell-based, ATP luminescence, mouse fibroblasts (AID 2010); assay type: functional;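 note: cells exposed to compound for about 90 hours before reading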
[18] = THP-1 cell cytotoxicity, dose response, cytotoxicity control for non-replicating M. tuberculosis project (AID 489025); assay type: functional
[19] = HepG2 cell cytotoxicity, dose response, cytotoxicity control for non-replicating M. tuberculosis project (AID 489018); assay type: functional; settings: Mycobacterium tuberculosis
[20] = biological target: Sphingosine 1-phosphate receptor 4 (Homo sapiens, UniProt O95977); assay: S1P4 receptor agonists, human, late-stage follow-up, cell-based, fluorescence, synthesized compounds (AID 463107); assay type: functional
Chain of Sphingosine 1-phosphate receptor 4 (O95977 whole entry): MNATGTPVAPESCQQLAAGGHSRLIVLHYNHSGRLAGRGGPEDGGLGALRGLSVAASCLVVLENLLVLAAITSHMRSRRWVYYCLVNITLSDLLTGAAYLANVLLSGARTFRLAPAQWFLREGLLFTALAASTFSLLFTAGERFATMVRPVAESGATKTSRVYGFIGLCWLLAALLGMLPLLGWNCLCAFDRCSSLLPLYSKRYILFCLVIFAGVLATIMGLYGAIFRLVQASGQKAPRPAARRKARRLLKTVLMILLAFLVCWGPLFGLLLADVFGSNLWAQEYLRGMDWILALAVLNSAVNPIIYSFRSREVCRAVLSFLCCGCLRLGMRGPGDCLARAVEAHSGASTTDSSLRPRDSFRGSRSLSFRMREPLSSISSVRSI

[21] = biological target: Voltage-dependent T-type calcium channel subunit alpha-1H (Homo sapiens, UniProt O95180); assay: Cav3.2 T-type channel inhibitors, cell-based, synthetic library set 1, calcium flux (AID 493022); assay type: functional
[22] = biological target: Glutathione S-transferase omega-1 (Homo sapiens, UniProt P78417); assay: GSTO1 inhibitor potency, recombinant enzyme, late-stage follow-up, biochemical, SE-Rh probe, in-gel fluorescence, powder samples, set 2 (AID 463142); assay type: functional
[23] = biological target: DNA dC->dU-editing enzyme APOBEC-3G (Homo sapiens, UniProt Q9HC16); assay: Dose Response confirmation of small molecule APOBEC3G DNA Deaminase Inhibitors via a fluorescence-based single-stranded DNA deaminase assay. [Related pubchem assays (depositor defined):AID493012, AID493028]; assay type: functional
[24] = biological target: DNA dC->dU-editing enzyme APOBEC-3A (Homo sapiens, UniProt P31941); assay: APOBEC3A DNA deaminase inhibitors, dose response, biochemical (AID 504722); assay type: functional

Chain of Nucleotide-binding oligomerization domain-containing protein 2 (Q9HC29 whole entry, the tested form may be a part): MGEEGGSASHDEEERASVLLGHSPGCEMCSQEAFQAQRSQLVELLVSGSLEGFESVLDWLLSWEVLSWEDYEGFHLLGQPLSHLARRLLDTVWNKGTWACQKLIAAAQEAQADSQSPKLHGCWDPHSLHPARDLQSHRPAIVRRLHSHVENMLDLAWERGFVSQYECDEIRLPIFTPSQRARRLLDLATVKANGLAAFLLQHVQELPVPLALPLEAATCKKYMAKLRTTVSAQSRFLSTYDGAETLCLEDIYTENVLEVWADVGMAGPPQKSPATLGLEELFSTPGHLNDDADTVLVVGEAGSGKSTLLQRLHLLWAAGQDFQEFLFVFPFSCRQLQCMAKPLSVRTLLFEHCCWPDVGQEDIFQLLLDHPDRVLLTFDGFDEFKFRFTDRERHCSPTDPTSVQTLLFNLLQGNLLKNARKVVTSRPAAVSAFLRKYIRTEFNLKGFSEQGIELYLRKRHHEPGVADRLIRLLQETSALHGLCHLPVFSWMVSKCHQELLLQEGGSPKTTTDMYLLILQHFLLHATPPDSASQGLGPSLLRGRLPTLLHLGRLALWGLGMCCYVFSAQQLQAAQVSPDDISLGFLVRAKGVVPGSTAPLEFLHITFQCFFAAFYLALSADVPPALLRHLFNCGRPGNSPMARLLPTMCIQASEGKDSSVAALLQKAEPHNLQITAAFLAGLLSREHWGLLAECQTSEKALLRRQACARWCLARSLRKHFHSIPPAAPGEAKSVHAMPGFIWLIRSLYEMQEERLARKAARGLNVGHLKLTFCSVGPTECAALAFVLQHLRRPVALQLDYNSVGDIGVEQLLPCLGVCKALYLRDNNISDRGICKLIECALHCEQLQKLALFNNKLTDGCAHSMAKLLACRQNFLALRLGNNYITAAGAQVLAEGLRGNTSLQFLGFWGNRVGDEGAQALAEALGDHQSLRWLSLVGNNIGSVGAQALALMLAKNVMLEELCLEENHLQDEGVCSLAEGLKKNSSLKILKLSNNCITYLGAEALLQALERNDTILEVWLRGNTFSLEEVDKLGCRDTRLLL

CCc1nc(SCC(=O)N2CCN(c3ccccc3)CC2)c2oc3ccccc3c2n1
IC50 (HEK293 [1]): 17.7 µM (active)
EC50 [2]: > 20 µM (inactive)
IC50 (HEK293 [3]): > 20 µM (inactive)
EC50 (HEK293 [4]): 4.73 µM (active)
IC50 (HEK293 [5]): 5.63 µM (inactive)
AC50 [6]: 2 µM (active)
EC50 (Protein RecA): > 380 µM (inactive)

O=C(c1csc2c1CCCC2)n1cccn1
IC50 (Coagulation factor XII): 5.39 µM (active)
IC50 [7]: > 50 µM (not active)

COC(=O)c1cc(Cl)ccc1NC(=O)c1ccc(OC)cc1
IC50 (Hexokinase): > 25 µM (inactive)

CCOc1ccc(C=NNc2ccc(S(=O)(=O)Nc3ccccc3C(=O)O)cc2[N+](=O)[O-])cc1
IC50 [8]: 5.78 µM (active)
IC50 [9]: 3.67 µM (active)
IC50 [10]: 7.56 µM (active)
IC50 (Beta-galactosidase): > 66.6 µM (inactive)
IC50 [11]: 15.6 µM (active)
IC50 [12]: 51.3 µM (inactive)
IC50 [13]: > 66 µM (inactive)
IC50 [14]: 4.41 µM (active)

Cc1cc(NC2CCCCC2)nc(NCc2ccccc2)n1
AC50 (INS1): 2.83 µM (active)
CC50 [15]: > 20 µM (active)
IC50 (cells): 10.7 µM (active)
EC50 [16]: 1.61 µM (active)
EC50 [17]: 8.62 µM (active)
CC50 [18]: 12.9 µM (active)
CC50 [19]: 16.1 µM (active)

COC(=O)c1ncccc1OCCOc1ccc(Cl)cc1Cl
EC50 [20]: > 50 µM (inactive)

O=C(COc1ccc(Cl)cc1)Nc1nnc(-c2ccc(F)cc2)o1
EC50 [21]: 1.8 µM (active)

C#CCN(CCCN(C(=O)CCl)c1ccc([N+](=O)[O-])cc1)C(=O)C(F)(F)F
IC50 [22]: 0.023 µM (active)

CC(/C=N/n1c(S)nnc1-c1ccco1)=C\c1ccco1
IC50 [23]: 2.62 µM (active)
IC50 [24]: > 100 µM (inactive)
